Test results as given in US20100324067A1, “TETRACYCLIC DIPYRANO-COUMARIN COMPOUNDS WITH ANTI-HIV AND ANTI-MYCOBACTERIUM TUBERCULOSIS ACTIVITIES” (priority 2007, published 2010).
Values after ≈ are worked out from the molar mass of the structure shown. Where two headings read alike, the source gives them in different places.

How the values were obtained:
HIV-1 = assay: Inhibitory activity against HIV-1 (literature method, Chen et al. J Virol 1997); conditions: for inhibition at 1 µM: Human immunodeficiency virus 1, read-out: Anti-HIV (%, 1.0 μM); for EC50: Human immunodeficiency virus 1; for Therapeutic index (TI) = 50% cytotoxicity doses/50% effective dose: value in brackets after EC50; for anti-HIV-1 activity in vitro compared to (+)-calanolide A / therapeutic index, in words: in words
Experimental: Inhibitory activity of the coumarin derivatives of the present invention against HIV-1.
Inhibitory activity of the compounds against HIV-1 is assayed using the literature method. The experimental conditions, procedures, reagents and so on of the experiment are referred to the reference of “ZHIWEI CHEN, PEI ZHOU, DAVID D. HO, et al. Genetically divergent strains of simian immuno-deficiency virus use CCR5 as a coreceptor for entry. Journal of Virology, 1997, 71(4): 2705-2714”.

host cells of the virus = assay: Cell toxicity to the host cells of the virus at 10 μM; format: cell-based
[1] = test system: Mycobacterium tuberculosis H37Rv (ATCC 27294); assay: Microplate Alamar Blue Assay (MABA) in BACTEC 12B medium (TAACF screen); format: cell-based
[2] = read-out: anti-TB active compound (MIC90 less than 10 μg/mL), classification

Row | SMILES | inhibition at 1 µM (HIV-1) [%] | Cell toxicity (10 μM) (host cells of the virus) | melting point [°C] | EC50 (HIV-1) [nM] | Therapeutic index (TI) = 50% cytotoxicity doses/50% effective dose (HIV-1) | Anti-HIV (%, 1.0 μM) (HIV-1; compound at 1.0 μM) [%] | IC50 [1] [µg/mL] | MIC90 ([1]; MABA, H37Rv, read-out: MIC90) [µg/mL] | MIC90 [1, 2] [µg/mL] | anti-HIV-1 activity in vitro compared to (+)-calanolide A (HIV-1) | therapeutic index, in words (HIV-1)
1 | CC1CC(=O)c2c(c3c(c4c(CN5CCN(C)CC5)cc(=O)oc24)OC(C)(C)C=C3)O1 (stereo not shown) [Example 7, 6,6,10-trimethyl-4-p-methylpiperazidinylmethylene-10,11-dihydro-6H-[2,3-f:2′,3′-h]-tri pyranyl-2,12-dione] | 48.3 | − | 238 to 239 |  |  |  |  |  |  |  | 
2 | CCc1cc(=O)oc2c3c(c4c(c12)OC(C)(C)C=C4)OC(C)CC3=O (stereo not shown) [Example 9] | 73.2 | − |  | 270 | > 1000 |  |  |  |  |  | 
3 | CCCc1cc(=O)oc2c1c1c(c3occc(=O)c32)C=CC(C)(C)O1 [Example 13, 6,6-dimethyl-4-n-propyl-2H,6H,12H-benzo[1,2-b:3,4-b′:5,6-b″]-tripyranyl-2,12-dione] | 64.9 | − | 102 to 104 |  |  |  |  |  |  |  | 
4 | CCCc1cc(=O)oc2c3c(c4c(c12)OC(C)(C)C=C4)OC(c1ccc(C)cc1)CC3=O (stereo not shown) [Example 17, 6,6-dimethyl-4-n-propyl-10-p-methyl-phenyl-2H,6H,12H-benzo[1,2-b:3,4-b′:5,6-b″]-tripyranyl-2,12-dione] | 57 | − | 174 to 176 |  |  |  |  |  |  |  | 
5 | CCCc1c(Cl)c(=O)oc2c3c(c4c(c12)OC(C)(C)C=C4)OC(C)CC3=O (stereo not shown) [Example 20, 6,6,10-trimethyl-3-chrolo-4-n-propyl-2H,6H,12H-benzo[1,2-b:3,4-b′:5,6-b″]-tripyranyl-2,12-dione] | 68.1 | − |  | 370 | 243-730 |  |  |  |  |  | 
6 | COc1cc(-c2cc(=O)oc3c4c(c5c(c23)OC(C)(C)C=C5)OC(C)CC4=O)cc(OC)c1OC (stereo not shown) [Example 24, 6,6,10-trimethyl-4-(3,4,5-trimethoxyl)-phenyl-2H,6H,12H-benzo[1,2-b:3,4-b′:5,6-b″]-tripyranyl-2,12-dione] | 58 | − | 129 to 131 |  |  |  |  |  |  |  | 
7 | CC1CC(=O)c2c(c3c(c4c5c(c(=O)oc24)CCCC5)OC(C)(C)C=C3)O1 (stereo not shown) [Example 27, 6,6,10-trimethyl-3,4-cyclohexyl-2H,6H,12H-benzo[1,2-b:3,4-b′:5,6-b″]-tripyranyl-2,12-dione] | 67 | − | 121 to 123 |  |  |  |  |  |  |  | 
8 | CCCc1cc(=O)oc2c3c(c4c(c12)OC(C)(C)C=C4)OC(C)CC3=O (stereo not shown) [Example 29, 6,6,10-trimethyl-4-n-propyl-2H,6H,12H-benzo[1,2-b:3,4-b′:5,6-b″]-tripyranyl-2,12-dione] |  | − | 112 to 115 |  |  | 73.1 |  |  |  |  | 
9 | CCCc1cc(=O)oc2c3c(c4c(c12)OC(CCC)C=C4)OC(C)CC3=O (stereo not shown) [Example 34, 10-methyl-4,6-di(-n-propyl)-2H,6H,12H-benzo[1,2-b:3,4-b′:5,6-b″]-tripyranyl-2,12-dione] | 54.1 | − | 158 to 160 |  |  |  | 2.88 (≈ 7.8 µM) | 3.18 (≈ 8.64 µM) | < 10 |  | 
10 | CCCc1cc(=O)oc2c3c(c4c(c12)OC(C)(C)C=C4)OC(CBr)CC3=O (stereo not shown) [Example 57] | 93.5 | − |  | 2.85 | > 10526 |  | 0.825 (≈ 1.9 µM) | 1.75 (≈ 4.05 µM) |  | much higher inhibitory activity | high therapeutic index
11 | CCCc1cc(=O)oc2c3c(c4c(c12)OC(C)(C)C=C4)OC1CC1C3=O (stereo not drawn) [Example 70, 6,6,-dimethyl-4-propyl-10,11-cis-cyclopropyl-2H,6H,12H-benzo[1,2-b:3,4-b′:5,6-b″]tripyranyl-2,12-dione] | 68.6 | − | 113 to 115 | 14.1 | 709-2127 |  | 3.31 (≈ 9.38 µM) | 5.54 (≈ 15.7 µM) | < 10 | much higher inhibitory activity | high therapeutic index
12 | CCCCC1C=Cc2c3c(c4oc(=O)cc(CCC(F)(F)F)c4c2O1)C(=O)CC(C)O3 (stereo not shown) [Example 73, 4-(3,3′,3″-trifluoro-n-propyl)-6-n-butyl-10-methyl-2H,6H,12H-benzo[1,2-b:3,4-b′: 5,6-b″]-tripyranyl-2,12-dione] | 53.6 | − | 129 to 130 |  |  |  |  |  |  |  | 
13 | CC1CC(=O)c2c(c3c(c4c(CCC(F)(F)F)cc(=O)oc24)OC(c2ccccc2)C=C3)O1 (stereo not shown) [Example 74, 4-(3,3′, 3″-trifluoro-n-propyl)-6-phenyl-O-methyl-2H,6H, 2H-benzo[1,2-b:3,4-b′:5,6-b″]-tripyranyl-2,12-dione] | 47.6 | − | 171 to 173 |  |  |  | 5.7 (≈ 12.5 µM) | 6.38 (≈ 14 µM) | < 10 |  | 
14 | C/C=C/C1C=Cc2c3c(c4oc(=O)cc(CCC)c4c2O1)C(=O)C(C)CO3 (stereo not shown) [Example 76, 4-n-propyl-6-propenyl-11-methyl-2H,6H,12H-benzo[1,2-b:3,4-b′:5,6-b″]-tripyranyl-2,12-dione] | 37.8 | − | 165 to 166 |  |  |  |  |  |  |  | 
15 | CCc1cc(=O)oc2c3c(c4c(c12)OC(C)C=C4)OC(C)CC3=O (stereo not shown) [Example 79, 6,10-dimethyl-4-ethyl-2H,6H,12H-benzo[1,2-b:3,4-b′:5,6-b″]-tripyranyl-2,12-dione] | 57.4 | − | 133 to 134 |  |  |  | 6.07 (≈ 18.6 µM) | 6.84 (≈ 21 µM) |  |  | 
16 | CCCc1c(Cl)c(=O)oc2c3c(c4c(c12)OC(C)C=C4)OC(C)CC3=O (stereo not shown) [Example 81, 6,10-dimethyl-4-n-propyl-3-chloro-2H,6H,12H-benzo[1,2-b:3,4-b′:5,6-b″]-tripyranyl-2,12-dione] | 55.7 | − | 129 to 131 |  |  |  |  |  |  |  | 
17 | CCCCc1cc(=O)oc2c3c(c4c(c12)OC(C)C=C4)OC(C)CC3=O (stereo not shown) [Example 82, 6,10-dimethyl-4-n-butyl-2H,6H,12H-benzo[1,2-b:3,4-b′:5,6-b″]-tripyranyl-2,12-dione] | 75.4 | − | 128 to 129 |  |  |  | 36.3 (≈ 102 µM) | 56.2 (≈ 158 µM) |  |  | 
18 | CCc1c(F)c(=O)oc2c3c(c4c(c12)OC(C)C=C4)OC(C)CC3=O (stereo not shown) [Example 83, 6,10-dimethyl-4-ethyl-3-fluoro-2H, H, 12H-benzo[1,2-b:3,4-b′: 5,6-b″]-tripyranyl-2,12-dione] | 39.5 | − | 141 to 142 |  |  |  | 24.4 (≈ 70.9 µM) | 27.7 (≈ 80.4 µM) |  |  | 
19 | C/C=C/C1C=Cc2c3c(c4oc(=O)c(Cl)c(CCC)c4c2O1)C(=O)CC(C)O3 (stereo not shown) [Example 86, 4-n-propyl-6-propenyl-3-chloro-10-methyl-2H,6H,12H-benzo[1,2-b:3,4-b′:5,6-b″]-tripyranyl-2,12-dione] | 57.3 | − | 142 to 144 |  |  |  |  |  |  |  | 
20 | C/C=C/C1C=Cc2c3c(c4oc(=O)cc(CC)c4c2O1)C(=O)CC(C)O3 (stereo not shown) [Example 87, 4-ethyl-6-propenyl-10-methyl-2H,6H,12H-benzo[1,2-b:3,4-b′:5,6-b″]-tripyranyl-2,12-d ione] | 56.4 | − | 153 to 155 |  |  |  | 51.2 (≈ 145 µM) | > 100 |  |  | 
21 | CCCc1c(Cl)c(=O)oc2c3c(c4c(c12)OCC(C)=C4)OC(C)CC3=O (stereo not shown) [Example 91, 4-n-propyl-3-chloro-7,10-dimethyl-2H,6H,12H-benzo[1,2-b:3,4-b′:5,6-b″]-tripyranyl-2,12-dione] | 49.1 | − | 129 to 131 |  |  |  |  |  |  |  | 
22 | CCCc1c(F)c(=O)oc2c3c(c4c(c12)OCC(C)=C4)OC(C)CC3=O (stereo not shown) [Example 92] | 47.1 | − | 122 to 124 |  |  |  |  |  |  |  | 
23 | CCCc1cc(=O)oc2c3c(c4c(c12)OC(c1ccccc1[N+](=O)[O-])C=C4)OC(C)CC3=O (stereo not shown) [Example 97] | 52.6 | − | 216 to 218 |  |  |  |  |  |  |  | 
